Experimental data from patent publication US5770575A, “Nipecotic acid derivatives as antithrombotic compounds” (Ortho Pharmaceutical Corporation, priority 1995, dated 1998).
Values belong to the compound of their own block, whether it stands above or below them.

Key:
GPIIb/IIIa = biological target: T1, GPIIb/IIIa (Homo sapiens, UniProt P05106+P08514); test: In vitro solid phase purified glycoprotein IIb/IIIa binding assay (biotinylated fibrinogen); conditions: for IC50: Table I; for inhibition at 50 µM: read-out: Binding (column Binding IC50), % @ 50 μM
T1 sequence (P08514 32-887 limits assumed): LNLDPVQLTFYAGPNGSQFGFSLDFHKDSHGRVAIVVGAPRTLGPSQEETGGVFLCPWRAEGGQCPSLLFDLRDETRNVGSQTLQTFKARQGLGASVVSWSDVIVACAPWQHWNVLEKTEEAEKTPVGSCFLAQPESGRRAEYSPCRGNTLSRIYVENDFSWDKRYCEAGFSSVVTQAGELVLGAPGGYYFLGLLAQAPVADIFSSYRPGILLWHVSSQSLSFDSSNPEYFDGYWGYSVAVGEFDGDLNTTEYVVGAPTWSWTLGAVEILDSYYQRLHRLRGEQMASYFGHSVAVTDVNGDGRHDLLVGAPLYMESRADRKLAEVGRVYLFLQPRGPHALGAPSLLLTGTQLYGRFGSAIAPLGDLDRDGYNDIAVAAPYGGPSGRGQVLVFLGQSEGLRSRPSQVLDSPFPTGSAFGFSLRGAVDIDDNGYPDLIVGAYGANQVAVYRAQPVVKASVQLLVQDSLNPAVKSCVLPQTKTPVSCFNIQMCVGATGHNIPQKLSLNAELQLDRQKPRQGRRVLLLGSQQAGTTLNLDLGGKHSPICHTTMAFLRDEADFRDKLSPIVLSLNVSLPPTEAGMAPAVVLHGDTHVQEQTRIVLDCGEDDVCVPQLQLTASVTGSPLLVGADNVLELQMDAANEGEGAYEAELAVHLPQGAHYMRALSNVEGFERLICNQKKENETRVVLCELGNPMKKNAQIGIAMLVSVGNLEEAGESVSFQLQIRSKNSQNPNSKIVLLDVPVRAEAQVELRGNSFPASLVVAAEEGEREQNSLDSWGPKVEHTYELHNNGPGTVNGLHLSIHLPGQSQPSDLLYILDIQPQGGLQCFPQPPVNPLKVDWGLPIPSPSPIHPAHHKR
T1 sequence (P05106 27-788): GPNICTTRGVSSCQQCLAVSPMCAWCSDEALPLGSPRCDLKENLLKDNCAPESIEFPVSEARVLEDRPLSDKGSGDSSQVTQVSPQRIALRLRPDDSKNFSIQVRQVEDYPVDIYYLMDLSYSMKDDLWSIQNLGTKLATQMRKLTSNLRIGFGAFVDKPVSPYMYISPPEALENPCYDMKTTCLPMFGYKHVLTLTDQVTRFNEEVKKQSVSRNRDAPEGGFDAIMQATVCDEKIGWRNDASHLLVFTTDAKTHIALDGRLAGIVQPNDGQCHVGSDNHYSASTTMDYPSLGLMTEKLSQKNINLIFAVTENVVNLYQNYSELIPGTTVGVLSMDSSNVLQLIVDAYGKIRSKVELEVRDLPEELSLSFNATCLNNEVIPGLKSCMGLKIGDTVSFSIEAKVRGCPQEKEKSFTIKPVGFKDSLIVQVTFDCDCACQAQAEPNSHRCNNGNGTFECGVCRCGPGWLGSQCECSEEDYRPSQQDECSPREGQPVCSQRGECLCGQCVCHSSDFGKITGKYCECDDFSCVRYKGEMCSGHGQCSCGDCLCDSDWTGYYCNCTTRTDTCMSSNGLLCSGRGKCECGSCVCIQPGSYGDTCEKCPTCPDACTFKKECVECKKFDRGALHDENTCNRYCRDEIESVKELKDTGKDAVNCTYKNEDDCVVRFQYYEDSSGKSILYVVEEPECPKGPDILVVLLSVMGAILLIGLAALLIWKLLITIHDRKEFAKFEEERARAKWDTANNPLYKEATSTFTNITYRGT
From the text: The compounds of the present invention interrupt binding of fibrinogen to platelet glycoprotein IIb/IIIa (GPIIb/IIIa) and thereby inhibit platelet aggregation. […] Because the final, common pathway in normal platelet aggregation is the binding of fibrinogen to activated, exposed GPIIb/IIIa, inhibition of this binding represents a plausible antithrombotic approach. The receptor is activated by stimuli such as ADP, collagen, and thrombin, exposing binding domains to two different peptide regions of fibrinogen: α-chain Arg-Gly-Asp (RGD) and γ-chain 400-411.
IN VITRO SOLID PHASE PURIFIED GLYCOPROTEIN IIB/IIIA BINDING ASSAY.
The plate is covered and incubated overnight at 4° C. The GPIIb/IIa solution is discarded and 150 μl of 5% BSA is added and incubated at RT for 1-3 h. The plate is washed extensively with modified Tyrodes buffer. Biotinylated fibrinogen (25 μl/well) at 2× final concentration is added to the wells that contain the test compounds (25 μl/well) at 2× final concentration. The plate is covered and incubated at RT for 2-4 h. Twenty minutes prior to incubation completion, one drop of Reagent A (Vecta Stain ABC Horse Radish Peroxidase kit, Vector Laboratories, Inc.) and one drop Reagent B are added with mixing to 5 mL modified Tyrodes buffer mix and let stand. The ligand solution is discarded and the plate washed (5×200 μl/well) with modified Tyrodes buffer. Vecta Stain HRP-Biotin-Avidin reagent (50 μl/well, as prepared above) is added and incubated at RT for 15 min. The Vecta Stain solution is discarded and the wells washed (5×200 μl/well) with modified Tyrodes buffer. […] The absorbance is read at 490 nm.

gel-filtered platelets = test: In vitro inhibition of thrombin-induced gel-filtered platelet aggregation assay; type: cell-based; conditions: *Indicates IC50, read-out: Pl. Aggr. IC50
Procedure: IN VITRO INHIBITION OF THROMBIN-INDUCED GEL-FILTERED PLATELET AGGREGATION ASSAY.
The percentage of platelet aggregation is calculated as an increase in light transmission of compound treated platelet concentrate vs. control treated platelet concentrate. Blood is obtained from drug free, normal donors into tubes containing 0.13M sodium citrate. Platelet rich plasma (PRP) is collected by centrifugation of whole blood at 200×g for 10 min at 25° C. The PRP (5 mL) is gel filtered through Sepharose 2B (bed volume 50 mL), and the platelet count is adjusted to 2×10^7platelets per sample. The following constituents are added to a siliconized cuvette: concentrated platelet filtrate and Tyrode's buffer (0.1 4M NaCl, 0.0027M KCl, 0.01 2M NaHCO3, 0.76 mM Na2 HPO4, 0.0055M glucose, 2 mg/mL BSA and 5.0 mM HEPES @ pH 7.4) in an amount equal to 350 μl, 50 μl of 20 mM calcium and 50 μl of the test compound. Aggregation is monitored in a BIODATA aggregometerforthe 3 min following the addition of agonist (thrombin 50 μl of 1 unit/mL).

occlusive thrombus = test: In vivo dog study: thrombus formation in extracorporeal arteriovenous shunt; parameters: species or system mongrel dogs; conditions: for Thrombus Weight: mean ± SEM
Procedure: Compound 16 was tested in the following in vivo dog model to determine its therapeutic efficacy
(§1) Adult mongrel dogs of either sex 9-13 kg) were anesthetized with pentobarbital sodium (35 mg/kg, i.v.) and ventilated with room air via an endotracheal tube (12 strokes/min, 25 ml/kg). For arterial pressure determination, the left carotid artery was cannulated with a saline-filledpolyethylene catheter (PE-200) and connected to a Statham pressure transducer (P231D, Oxnard, Calif.). Mean arterial diastolic blood pressure. Heart rate was monitored using a cardiotachometer (Biotach, Gould
(§2) Electronics, Cleveland, Ohio) triggered from a lead 11 electrocardiogram generated by limb leads. A jugular vein was cannulated (PE-200) for drug administration. The left femoral artery and the left femoral vein were cannulated with silicon treated (Sigmacote, Sigma Chemical Co., St. Louis, Mo.), saline filled polyethylene tubing (PE-200) and connected with a 5 cm section of silicon treated tubing (PE-240) to form an extracorporeal arteriovenous shunt (A-V). Shunt patency was monitored using a Doppler flow system (model VF-1, Crystal Biotech Inc., Hopkinton, Mass.) and proximal to the locus of the shunt. All parameters were monitored continuously on a polygraph recorder (Gould TA-4000, Oxnard Calif.) at a paper speed of 10 mm/min.
(§3) On completion of a 15 min post surgical stabilization period, an occlusive thrombus was formed by the introduction of a thrombogenic surface (O braided silk thread, 5 cm in length, Ethicon Inc., Somerville, N.J.) into the shunt. Four consecutive 15 min shunt periods were employed with the first consisting of a vehicle infusion followed by increasing concentrations of Compound 16, SC-47643, saline with DMF or saline with citric acid administered as a bolus followed by an infusion beginning 5 min. before insertion of the thrombogenic surface and continued for an additional 15 min. AT the end of each 15 min shunt period the silk was carefully removed and weighed. A fifth shunt immediately following the total cumulative treatment dose was used to assess patency duration as indicated by time to total occlusion. Thrombus weight was calculated by subtracting the weight of the silk prior to placement from the total weight of the silk on removal from the shunt. Arterial blood was withdrawn prior to the first shunt and after each shunt period for determination of whole blood collagen-induced platelet aggregation, thrombin-induced platelet degranulation (platelet ATP release), prothrombin time and platelet count. Template bleeding time was performed beginning 10 min. into each shunt period.
(§4) Compound 16;1+0.03, 3+0.1 and 5+0.3 mg/kg, i.v. (bolus)+mg/kg/hr,i.v. (infusion) was solubilized in saline+DMF (5%) and serially diluted to achieve appropriate concentrations expressed as parent compound.
(§5) All values are expressed as the mean and standard error of the mean. Statistical significance of the change was assessed based on change from baseline suing analysis of variance and Student's t-test. Differences were considered significant when P<0.05.

platelet aggregation = test: In vivo dog study: gamma thrombin- and collagen-induced platelet aggregation; parameters: species or system mongrel dogs; conditions: mean ± SEM
Procedure: as §1, §2, §3
Whole blood platelet aggregation and ATP release were measured using a lumi-aggregation and ATP release were measured using a lumi-aggregometer (Chrono-log, Havertown, Pa.) by recording the change in impedance (platelet aggregation) and light transmission (ATP-release) through a stirred (1000 rpm) suspension of whole blood maintained at 37 C.
as §4, §5

Structure (SMILES): CC(C)(C)OC(=O)N[C@@H](CCCCNC(=O)OCc1ccccc1)C(=O)N1CCCC(C(=O)NCCC(=O)OCc2ccccc2)C1 (stereo partly drawn) [Compound 1, Nα-Boc-L-Lys(Cbz)-Nip-Ala-OBn]
IC50 (GPIIb/IIIa): 20100 nM

Structure (SMILES): CC(C)(C)OC(=O)N[C@@H](CCCCN)C(=O)N1CCCC(C(=O)NCCC(=O)O)C1 (stereo partly drawn) [Compound 2, Nα-Boc-L-Lys-Nip-γ-Ala--OH]
IC50 (GPIIb/IIIa): 740 nM

Structure (SMILES): NCCCC[C@H](N)C(=O)N1CCCC(C(=O)NCCC(=O)O)C1 (stereo partly drawn) [Compound 4, H-L-Lys-Nip-γ-Ala-OH]
IC50 (GPIIb/IIIa): 2600 nM

Structure (SMILES): NCCCCCC(=O)N1CCCC(C(=O)NCCC(=O)O)C1 (stereo not drawn) [Compound 5, N-(Nε- nocaroyl)-Nip-β-Ala-OH]
IC50 (gel-filtered platelets): 1600 nM
IC50 (GPIIb/IIIa): 13 nM

Structure (SMILES): CC(C)(C)OC(=O)N[C@@H](CCCCN)C(=O)N1CCCC(C(=O)NCCCC(=O)O)C1 (stereo partly drawn) [Compound 9, Nα-Boc-L-Lys-Nip-γ-aminobutyric acid]
inhibition at 50 µM (GPIIb/IIIa): 59%

Structure (SMILES): NCCCC[C@@H](N)C(=O)N1CCCC(C(=O)NCCC(=O)O)C1 (stereo partly drawn) [Compound 10, H-D-Lys-Nip-β-Ala-OH]
IC50 (GPIIb/IIIa): 760 nM

Structure (SMILES): CC(C)NCCCC[C@H](NC(=O)OC(C)(C)C)C(=O)N1CCCC(C(=O)NCCC(=O)O)C1 (stereo partly drawn) [Compound 15, Nα-Boc-L-Lys(i-Pr)-Nip-β-Ala-OH]
inhibition at 5 µM (GPIIb/IIIa; read-out: Binding (column Binding IC50), % @ 5 μM): 20%

Structure (SMILES): CC(C)(C)OC(=O)N[C@H](CCCCN)C(=O)N1CCC[C@@H](C(=O)NCCC(=O)O)C1 [Compound 16, Nα-Boc-D-Lys-R-(-)-Nip-β-Ala-OH]
Incidence of occlusive thrombus formation (animals per group) (occlusive thrombus; Period 2, Dose 1 (1+0.03 mg/kg iv bolus + mg/kg/hr infusion)): 2/4
Incidence of occlusive thrombus formation (animals per group) (occlusive thrombus; Period 3, Dose 2 (3+0.1)): 1/4
Incidence of occlusive thrombus formation (animals per group) (occlusive thrombus; Period 4, Dose 3 (5+0.3)): 0/4
Incidence of occlusive thrombus formation (animals per group) (occlusive thrombus; Post Treatment, monitored for 60 min): 3/4
Thrombus Weight (occlusive thrombus; Shunt 2 - Dose 1 (1+0.03)): 52 ± 3 mg
Thrombus Weight (occlusive thrombus; Shunt 3 - Dose 2 (3+0.1), *P < 0.05): 27 ± 1 mg
Thrombus Weight (occlusive thrombus; Shunt 4 - Dose 3 (5+0.3), *P < 0.05): 19 ± 2 mg
Collagen-Induced Plat Agg (% inhib) (platelet aggregation; 2-Dose 1 (1+0.03)): 14 ± 3 % inhib
G-Thrombin-Induced Plat Agg (% inhib) (platelet aggregation; 2-Dose 1 (1+0.03)): 8 ± 5 % inhib
Collagen-Induced Plat Agg (% inhib) (platelet aggregation; 3-Dose 2 (3+0.1), *P < 0.05): 99 ± 1 % inhib
G-Thrombin-Induced Plat Agg (% inhib) (platelet aggregation; 3-Dose 2 (3+0.1), *P < 0.05): 34 ± 8 % inhib
Collagen-Induced Plat Agg (% inhib) (platelet aggregation; 4-Dose 3 (5+0.3), *P < 0.05): 100 ± 0 % inhib
G-Thrombin-Induced Plat Agg (% inhib) (platelet aggregation; 4-Dose 3 (5+0.3), *P < 0.05): 72 ± 8 % inhib
G-Thrombin-Induced Plat Agg (% inhib) (platelet aggregation; 30 min post): 21 ± 8 % inhib
Collagen-Induced Plat Agg (% inhib) (platelet aggregation; 30 min post, *P < 0.05): 82 ± 13 % inhib
G-Thrombin-Induced Plat Agg (% inhib) (platelet aggregation; 60 min post): 11 ± 5 % inhib
Collagen-Induced Plat Agg (% inhib) (platelet aggregation; 60 min post, *P < 0.05): 57 ± 14 % inhib

Second part, the compound after the results:

IC50 (gel-filtered platelets): 600 nM
IC50 (GPIIb/IIIa): 21 nM
Structure (SMILES): CC(C)(C)OC(=O)N[C@H](CCCCN)C(=O)N1CCCC(C(=O)NCCC(=O)O)C1 (stereo partly drawn) [Compound 3, Nα-Boc-D-Lys-Nip-γ-Ala--OH]

inhibition at 50 µM (GPIIb/IIIa): 24%
Structure (SMILES): CC(=O)N[C@@H](CCCCN)C(=O)N1CCCC(C(=O)NCC(=O)O)C1 (stereo partly drawn) [Compound 6, Nα-Ac-L-Lys-Nip-Gly-OH]

IC50 (GPIIb/IIIa): 74 nM
Structure (SMILES): CC(=O)N[C@@H](CCCCN)C(=O)N1CCCC(C(=O)NCCC(=O)O)C1 (stereo partly drawn) [Compound 7, Nα-Ac-L-Lys-Nip-β-Ala-OH]

IC50 (GPIIb/IIIa): 340 nM
Structure (SMILES): CC(=O)N[C@H](CCCCN)C(=O)N1CCCC(C(=O)NCCC(=O)O)C1 (stereo partly drawn) [Compound 13, Nα-Ac-D s-Nip-β-Ala-OH]
